{"source": "patent US20150209327A1", "about": "“METHODS FOR THE TREATMENT OF OBESITY USING APREMILAST” (Celgene Corporation, priority 2014, published 2015)", "key": {"[1]": {"assay": "Psoriatic Arthritis (PsA) Phase 3 Data Pool: weight change", "type": "in vivo, human", "from_the_text": "Apremilast has shown benefit of weight loss in both Phase 2 and Phase 3 Psoriatic Arthritis (PSA) and Psoriasis (PSOR) trials."}, "[2]": {"assay": "Apremilast Data Pool: weight change", "type": "in vivo, human", "from_the_text": "Similar results of weight loss were reported for the Apremilast Data Pool. A weight decrease was reported during the Placebo-controlled Period (24 weeks) in 3 (0.2%) subjects who received placebo and 26 (0.9%) subjects who received apremilast, including 8 (0.8%) subject in the APR 20 BID group, and 18 (1.1%) subjects in the APR 30 BID group.\nThe end-of-period value is the last postbaseline value (only through the Placebo-controlled Period for placebo-treated subjects) including data up to 28 days after the last dose of investigational product but excluding the observational follow-up visit.\nThe end-of-period value is the last postbaseline value (while subjects were receiving apremilast), including data up to 28 days after the last dose of apremilast but excluding the observational follow-up visit."}, "[3]": {"details": "20 mg BID, Apremilast-exposure Period"}, "[4]": {"details": "20 mg BID, Apremilast-exposure Period, Apremilast Subjects as Treated, m = 1373"}, "[5]": {"details": "20 mg BID, Placebo-controlled Period"}, "[6]": {"details": "20 mg BID, Placebo-controlled Period, Subjects as Initially Treated at Week 0, m = 900"}, "[7]": {"details": "30 mg BID, Apremilast-exposure Period"}, "[8]": {"details": "30 mg BID, Apremilast-exposure Period, Apremilast Subjects as Treated, m = 2268"}, "[9]": {"details": "30 mg BID, Placebo-controlled Period"}, "[10]": {"details": "30 mg BID, Placebo-controlled Period, Subjects as Initially Treated at Week 0, m = 1541"}, "[11]": {"details": "APR Total, Apremilast-exposure Period, Apremilast Subjects as Treated, m = 3606"}, "[12]": {"details": "APR Total, Placebo-controlled Period, Subjects as Initially Treated at Week 0, m = 2591"}}}
{"compound": "CCOc1cc([C@@H](CS(C)(=O)=O)N2C(=O)c3cccc(NC(C)=O)c3C2=O)ccc1OC", "note": "[Apremilast, (+)-2-[1-(3-ethoxy-4-methoxyphenyl)-2-methylsulfonylethyl]-4-acetylaminoisoindoline-1,3-dione]", "values": [{"measurement": "percentage of subjects with weight change of -10% to <−5%", "setting": "[1]; 30 mg BID, Weeks 0 to 16", "value": 4.1, "unit": "%"}, {"measurement": "weight decrease reported, subjects n (%)", "setting": "[1]; all subjects who received apremilast", "value": "25 (1.3%) n (%)"}, {"measurement": "body weight of the majority of subjects", "setting": "[1]; regardless of duration of exposure", "value": "maintained their body weight within 0% and 5% of baseline"}, {"measurement": "observed weight loss of greater than 10%, % subjects", "setting": "[2]; [3]", "value": 4.0, "unit": "%"}, {"measurement": "weight decrease reported, subjects n (%)", "setting": "[2]; [3]", "value": "17 (1.2%) n (%)"}, {"measurement": "Weight % Change Category 0%, n (%)", "setting": "[2]; [4]", "value": "125 (9.1) n (%)"}, {"measurement": "Weight % Change Category <−20%, n (%)", "setting": "[2]; [4]", "value": "2 (0.1) n (%)"}, {"measurement": "Weight % Change Category >0% to ≦5%, n (%)", "setting": "[2]; [4]", "value": "410 (29.9) n (%)"}, {"measurement": "Weight % Change Category >5% to ≦10%, n (%)", "setting": "[2]; [4]", "value": "56 (4.1) n (%)"}, {"measurement": "Weight % Change Category >10% to ≦20%, n (%)", "setting": "[2]; [4]", "value": "18 (1.3) n (%)"}, {"measurement": "Weight % Change Category >20%, n (%)", "setting": "[2]; [4]", "value": "0 n (%)"}, {"measurement": "Weight % Change Category ≧−5% to <0%, n (%)", "setting": "[2]; [4]", "value": "565 (41.2) n (%)"}, {"measurement": "Weight % Change Category ≧−10% to <−5%, n (%)", "setting": "[2]; [4]", "value": "144 (10.5) n (%)"}, {"measurement": "Weight % Change Category ≧−20% to <−10%, n (%)", "setting": "[2]; [4]", "value": "53 (3.9) n (%)"}, {"measurement": "observed weight loss of greater than 10%, subjects n (%)", "setting": "[2]; [5]", "value": "17 (1.9%) n (%)"}, {"measurement": "percentage of subjects with weight change of >−10% to <−5%", "setting": "[2]; [5]", "value": 9.3, "unit": "%"}, {"measurement": "weight decrease reported, subjects n (%)", "setting": "[2]; 20 mg BID, Placebo-controlled Period (24 weeks)", "value": "8 (0.8%) n (%)"}, {"measurement": "Weight % Change Category 0%, n (%)", "setting": "[2]; [6]", "value": "101 (11.2) n (%)"}, {"measurement": "Weight % Change Category <−20%, n (%)", "setting": "[2]; [6]", "value": "1 (0.1) n (%)"}, {"measurement": "Weight % Change Category >0% to ≦5%, n (%)", "setting": "[2]; [6]", "value": "277 (30.8) n (%)"}, {"measurement": "Weight % Change Category >5% to ≦10%, n (%)", "setting": "[2]; [6]", "value": "262 (2.9) n (%)"}, {"measurement": "Weight % Change Category >10% to ≦20%, n (%)", "setting": "[2]; [6]", "value": "2 (0.2) n (%)"}, {"measurement": "Weight % Change Category >20%, n (%)", "setting": "[2]; [6]", "value": "0 n (%)"}, {"measurement": "Weight % Change Category ≧−5% to <0%, n (%)", "setting": "[2]; [6]", "value": "393 (43.7) n (%)"}, {"measurement": "Weight % Change Category ≧−10% to <−5%, n (%)", "setting": "[2]; [6]", "value": "84 (9.3) n (%)"}, {"measurement": "Weight % Change Category ≧−20% to <−10%, n (%)", "setting": "[2]; [6]", "value": "16 (1.8) n (%)"}, {"measurement": "mean weight change from baseline", "setting": "[2]; 20 mg BID, end of the Apremilast-exposure Period", "value": -1.09, "unit": "kg"}, {"measurement": "mean weight change from baseline", "setting": "[2]; 20 mg BID, end of the Placebo-controlled Period, Subjects as Initially Treated at Week 0", "value": -1.01, "unit": "kg"}, {"measurement": "observed weight loss of greater than 10%, % subjects", "setting": "[2]; [7]", "value": 4.9, "unit": "%"}, {"measurement": "weight decrease reported, subjects n (%)", "setting": "[2]; [7]", "value": "36 (1.5%) n (%)"}, {"measurement": "Weight % Change Category 0%, n (%)", "setting": "[2]; [8]", "value": "162 (7.1) n (%)"}, {"measurement": "Weight % Change Category <−20%, n (%)", "setting": "[2]; [8]", "value": "11 (0.5) n (%)"}, {"measurement": "Weight % Change Category >0% to ≦5%, n (%)", "setting": "[2]; [8]", "value": "610 (26.9) n (%)"}, {"measurement": "Weight % Change Category >5% to ≦10%, n (%)", "setting": "[2]; [8]", "value": "116 (5.1) n (%)"}, {"measurement": "Weight % Change Category >10% to ≦20%, n (%)", "setting": "[2]; [8]", "value": "29 (1.3) n (%)"}, {"measurement": "Weight % Change Category >20%, n (%)", "setting": "[2]; [8]", "value": "5 (0.2) n (%)"}, {"measurement": "Weight % Change Category ≧−5% to <0%, n (%)", "setting": "[2]; [8]", "value": "923 (40.7) n (%)"}, {"measurement": "Weight % Change Category ≧−10% to <−5%, n (%)", "setting": "[2]; [8]", "value": "311 (13.7) n (%)"}, {"measurement": "Weight % Change Category ≧−20% to <−10%, n (%)", "setting": "[2]; [8]", "value": "101 (4.5) n (%)"}, {"measurement": "observed weight loss of greater than 10%, subjects n (%)", "setting": "[2]; [9]", "value": "23 (1.5%) n (%)"}, {"measurement": "percentage of subjects with weight change of >−10% to <−5%", "setting": "[2]; [9]", "value": 11.3, "unit": "%"}, {"measurement": "weight decrease reported, subjects n (%)", "setting": "[2]; 30 mg BID, Placebo-controlled Period (24 weeks)", "value": "18 (1.1%) n (%)"}, {"measurement": "Weight % Change Category 0%, n (%)", "setting": "[2]; [10]", "value": "159 (10.3) n (%)"}, {"measurement": "Weight % Change Category <−20%, n (%)", "setting": "[2]; [10]", "value": "1 (0.1) n (%)"}, {"measurement": "Weight % Change Category >0% to ≦5%, n (%)", "setting": "[2]; [10]", "value": "410 (26.6) n (%)"}, {"measurement": "Weight % Change Category >5% to ≦10%, n (%)", "setting": "[2]; [10]", "value": "37 (2.4) n (%)"}, {"measurement": "Weight % Change Category >10% to ≦20%, n (%)", "setting": "[2]; [10]", "value": "8 (0.5) n (%)"}, {"measurement": "Weight % Change Category >20%, n (%)", "setting": "[2]; [10]", "value": "1 (0.1) n (%)"}, {"measurement": "Weight % Change Category ≧−5% to <0%, n (%)", "setting": "[2]; [10]", "value": "729 (47.3) n (%)"}, {"measurement": "Weight % Change Category ≧−10% to <−5%, n (%)", "setting": "[2]; [10]", "value": "174 (11.3) n (%)"}, {"measurement": "Weight % Change Category ≧−20% to <−10%, n (%)", "setting": "[2]; [10]", "value": "22 (1.4) n (%)"}, {"measurement": "mean weight change from baseline", "setting": "[2]; 30 mg BID, end of the Apremilast-exposure Period", "value": -1.41, "unit": "kg"}, {"measurement": "mean weight change from baseline", "setting": "[2]; 30 mg BID, end of the Placebo-controlled Period, Subjects as Initially Treated at Week 0", "value": -1.21, "unit": "kg"}, {"measurement": "Weight % Change Category 0%, n (%)", "setting": "[2]; [11]", "value": "325 (8.3) n (%)"}, {"measurement": "Weight % Change Category <−20%, n (%)", "setting": "[2]; [11]", "value": "14 (0.4) n (%)"}, {"measurement": "Weight % Change Category >0% to ≦5%, n (%)", "setting": "[2]; [11]", "value": "1109 (28.4) n (%)"}, {"measurement": "Weight % Change Category >5% to ≦10%, n (%)", "setting": "[2]; [11]", "value": "179 (4.6) n (%)"}, {"measurement": "Weight % Change Category >10% to ≦20%, n (%)", "setting": "[2]; [11]", "value": "48 (1.2) n (%)"}, {"measurement": "Weight % Change Category >20%, n (%)", "setting": "[2]; [11]", "value": "6 (0.2) n (%)"}, {"measurement": "Weight % Change Category ≧−5% to <0%, n (%)", "setting": "[2]; [11]", "value": "1602 (41.0) n (%)"}, {"measurement": "Weight % Change Category ≧−10% to <−5%, n (%)", "setting": "[2]; [11]", "value": "466 (11.9) n (%)"}, {"measurement": "Weight % Change Category ≧−20% to <−10%, n (%)", "setting": "[2]; [11]", "value": "157 (4.0) n (%)"}, {"measurement": "Weight % Change Category 0%, n (%)", "setting": "[2]; [12]", "value": "280 (10.8) n (%)"}, {"measurement": "Weight % Change Category <−20%, n (%)", "setting": "[2]; [12]", "value": "3 (0.1) n (%)"}, {"measurement": "Weight % Change Category >0% to ≦5%, n (%)", "setting": "[2]; [12]", "value": "741 (28.6) n (%)"}, {"measurement": "Weight % Change Category >5% to ≦10%, n (%)", "setting": "[2]; [12]", "value": "66 (2.5) n (%)"}, {"measurement": "Weight % Change Category >10% to ≦20%, n (%)", "setting": "[2]; [12]", "value": "12 (0.5) n (%)"}, {"measurement": "Weight % Change Category >20%, n (%)", "setting": "[2]; [12]", "value": "1 (<0.1) n (%)"}, {"measurement": "Weight % Change Category ≧−5% to <0%, n (%)", "setting": "[2]; [12]", "value": "1187 (45.8) n (%)"}, {"measurement": "Weight % Change Category ≧−10% to <−5%, n (%)", "setting": "[2]; [12]", "value": "263 (10.2) n (%)"}, {"measurement": "Weight % Change Category ≧−20% to <−10%, n (%)", "setting": "[2]; [12]", "value": "38 (1.5) n (%)"}, {"measurement": "body weight of the majority of subjects", "setting": "[2]; Placebo-controlled Period and Apremilast-exposure Period", "value": "maintained their body weight within 0% and 5% of baseline"}, {"measurement": "weight decrease reported, subjects n (%)", "setting": "[2]; all subjects who received apremilast, Placebo-controlled Period (24 weeks)", "value": "26 (0.9%) n (%)"}]}
